Reference: patent publication US9493461B2, “Tetracyclic heterocycle compounds and methods of use thereof for the treatment of hepatitis C” (priority 2013, dated 2016)
Like-named read-outs stand apart in the source and are kept apart here.

What was measured:
[1] = tested on: HCV replicon genotype 1b; assay: HCV replicon assay, genotype 1b (cell ELISA for replicon-encoded NS3/4A); assay type: cell-based, hepatitis C virus (HCV)
Procedure: The HCV NS5B inhibitory activity of the present compounds may be tested using assays known in the art. The HCV NS5B polymerase inhibitors described herein have activities in a genotype 1b replicon assay as described in the Examples. The assay is performed by incubating a replicon harboring cell-line in the presence of inhibitor for a set period of time and measuring the effect of the inhibitor on HCV replicon replication either directly by quantifying replicon RNA level, or indirectly by measuring enzymatic activity of a co-encoded reporter enzyme such as luciferase or β-lactamase. By performing a series of such measurements at different inhibitor concentrations, the effective inhibitory concentration of the inhibitor (EC50 or EC90) is determined See Jan M. Vrolijk et al., A replicons-based bioassay for the measurement of interferons in patients with chronic hepatitis C, 110 J. VIROLOGICAL METHODS 201 (2003). Such assays may also be run in an automated format for high through-put screening. See Paul Zuck et al., A cell-based β-lactamase reporter gene assay for the identification of inhibitors of hepatitis C virus replication, 334 ANALYTICAL BIOCHEMISTRY 344 (2004).
(§1) Measurement of inhibition by compounds was performed using the HCV replicon system. Several different replicons encoding different HCV genotypes or mutations were used. In addition, potency measurements were made using different formats of the replicon assay, including different ways of measurements and different plating formats. See Jan M. Vrolijk et al., A replicons-based bioassay for the measurement of interferons in patients with chronic hepatitis C, 110 J. VIROLOGICAL METHODS 201 (2003); Steven S. Carroll et al., Inhibition of Hepatitis C Virus RNA Replication by 2′-Modified Nucleoside Analogs, 278(14) J. BIOLOGICAL CHEMISTRY 11979 (2003). However, the underlying principles are common to all of these determinations, and are outlined below.
(§2) Stable neomycin phosphotransferase encoding replicons-harboring cell lines were used, so all cell lines were maintained under G418 selection prior to the assay. Potency was determined using a cell ELISA assay with an antibody to the replicons encoded NS3/4a protease. See Caterina Trozzi et al., In Vitro Selection and Characterization of Hepatitis C Virus Serine Protease Variants Resistant to an Active-Site Peptide Inhibitor, 77(6) J. Virol. 3669 (2003). To initiate an assay, replicon cells were plated in the presence of a dilution series of test compound in the absence of G418. Typically, the assays were performed in a 96-well plate formate for manual operation, or a 384-well plate format for automated assay. Replicon cells and compound were incubated for 96 hours. At the end of the assay, cells were washed free of media and compound, and the cells were then lysed. RNA was quantified indirectly through detection of replicon-encoded NS3/4A protein levels, through an ELISA-based assay with an antibody specific for NS3/4A. IC50 determinations were calculated as a percentage of a DMSO control by fitting the data to a four-parameter fit function and the data obtained is provided in the table below.
(§3) Data for selected compounds of the present invention was obtained for genotypes 1a and 1b using this method and is provided in the table below: […]

[2] = tested on: HCV replicon genotype 1a; assay: HCV replicon assay, genotype 1a (cell ELISA for replicon-encoded NS3/4A); assay type: cell-based, hepatitis C virus (HCV)
Procedure: as §1, with “V[…]” for “VIROLOGICAL METHODS”
as §2, §3

[3] = Hepatitis C virus, 96 h, read-out: 1b IC50 (nM), genotype 1b replicon cells, 96 hours incubation, NS3/4A ELISA readout, % of DMSO control
[4] = Hepatitis C virus, 96 h, read-out: 1a IC50 (nM), genotype 1a replicon cells, 96 hours incubation, NS3/4A ELISA readout, % of DMSO control

| Compound | IC50 [1, 3] | IC50 [2, 4] | IC50 ([1]; read-out: 1b IC50, genotype 1b replicon cells, 96 hours incubation, NS3/4A ELISA readout, % of DMSO control) | IC50 ([2]; read-out: 1a IC50, genotype 1a replicon cells, 96 hours incubation, NS3/4A ELISA readout, % of DMSO control) |
| --- | --- | --- | --- | --- |
| CNC(=O)c1c(-c2ccc(F)cc2)oc2cc(N(C)S(C)(=O)=O)c(-c3ccc4nc(C(C)N5CC(F)C5)n5c6cccc(F)c6cc5c4n3)cc12 (single isomer, unassigned) [Example 39, (R or S)-5-(11-fluoro-6-(1-(3-fluoroazetidin-1-yl)ethyl)pyrido[3′,2′:4,5]pyrimido[1,6-a]indol-2-yl)-2-(4-fluorophenyl)-N-methyl-6-(N-methylmethylsulfonamido)benzofuran-3-carboxamide] | 6.08 nM | 6.37 nM |  |  |
| CNC(=O)c1c(-c2ccc(F)cc2)oc2cc(N(C)S(C)(=O)=O)c(-c3ccc4nc(C(C)N5CC(F)C5)n5c6cccc(F)c6cc5c4n3)cc12 (single isomer, unassigned) [Example 40, (S or R)-5-(11-fluoro-6-(1-(3-fluoroazetidin-1-yl)ethyl)pyrido[3′,2′:4,5]pyrimido[1,6-a]indol-2-yl)-2-(4-fluorophenyl)-N-methyl-6-(N-methylmethylsulfonamido)benzofuran-3-carboxamide] |  |  | 4.42 nM | 3.91 nM |
| CNC(=O)c1c(-c2ccc(F)cc2)oc2cc(N(C)S(C)(=O)=O)c(-c3ccc4nc(CCN5CC(F)C5)c5c([nH]c6cccc(F)c65)c4n3)cc12 [54′, 5-(7-fluoro-6-(2-(3-fluoroazetidin-1-yl)ethyl)-11H-indolo[3,2-c][1,5]naphthyridin-2-yl)-2-(4-fluorophenyl)-N-methyl-6-(N-methylmethylsulfonamido)benzofuran-3-carboxamide] | 4.24 nM | 4.17 nM |  |  |
| CNC(=O)c1c(-c2ccc(C(F)(F)F)nc2)oc2cc(N(C)S(C)(=O)=O)c(-c3ccc4ncn5c6cccc(F)c6cc5c4n3)cc12 [Example 1, 5-(11-fluoropyrido[3′,2′:4,5]pyrimido[1,6-a]indol-2-yl)-N-methyl-6-(N-methylmethylsulfonamido)-2-(6-(trifluoromethyl)pyridin-3-yl)benzofuran-3-carboxamide] | 4.01 nM | 6.56 nM |  |  |
| CNC(=O)c1c(-c2ccc(OC(F)F)nc2)oc2cc(N(C)S(C)(=O)=O)c(-c3ccc4ncn5c6cccc(F)c6cc5c4n3)cc12 [Example 2] | 6.91 nM | 2.83 nM |  |  |
| CNC(=O)c1c(-c2ccc(C(F)F)nc2)oc2cc(N(C)S(C)(=O)=O)c(-c3ccc4ncn5c6cccc(F)c6cc5c4n3)cc12 [Example 3] | 4.12 nM | 3.38 nM |  |  |
| CNC(=O)c1c(-c2ccc(C)nc2)oc2cc(N(C)S(C)(=O)=O)c(-c3ccc4ncn5c6cccc(F)c6cc5c4n3)cc12 [Example 5] | 7.4 nM | 3.7 nM |  |  |
| CNC(=O)c1c(-c2ccc(F)cc2C)oc2cc(N(C)S(C)(=O)=O)c(-c3ccc4ncn5c6cccc(F)c6cc5c4n3)cc12 [Example 6] | 5.08 nM | 3.2 nM |  |  |
| CNC(=O)c1c(-c2ccc(F)nc2)oc2cc(N(C)S(C)(=O)=O)c(-c3ccc4ncn5c6cccc(F)c6cc5c4n3)cc12 [Example 7] | 3.6 nM | 1.49 nM |  |  |
| CNC(=O)c1c(C2CC2)oc2cc(N(C)S(C)(=O)=O)c(-c3ccc4ncn5c6cccc(F)c6cc5c4n3)cc12 [Example 8] | 5.82 nM | 5.71 nM |  |  |
| CNC(=O)c1c(-c2ccc(F)cc2F)oc2cc(N(C)S(C)(=O)=O)c(-c3ccc4ncn5c6cccc(F)c6cc5c4n3)cc12 [Example 9, 2-(2,4-difluorophenyl)-5-(11-fluoropyrido[3′,2′:4,5]pyrimido[1,6-a]indol-2-yl)-N-methyl-6-(N-methylmethylsulfonamido)benzofuran-3-carboxamide] | 1.99 nM | 1.16 nM |  |  |
| CNC(=O)c1c(-c2ccc(F)cc2)oc2cc(N(C)S(C)(=O)=O)c(-c3ccc4ncn5c6cccc(F)c6cc5c4n3)cc12 [Example 10, 2-(4-fluorophenyl)-5-(11-fluoropyrido[3′,2′:4,5]pyrimido[1,6-a]indol-2-yl)-N-methyl-6-(N-methylmethylsulfonamido)benzofuran-3-carboxamide] | 3.24 nM | 2.01 nM |  |  |
| CNC(=O)c1c(-n2ccccc2=O)oc2cc(N(C)S(C)(=O)=O)c(-c3ccc4ncn5c6cccc(F)c6cc5c4n3)cc12 [Example 11, 5-(11-fluoropyrido[3′,2′:4,5]pyrimido[1,6-a]indol-2-yl)-N-methyl-6-(N-methylmethylsulfonamido)-2-(2-oxopyridin-1(2H)-yl)benzofuran-3-carboxamide] | 2.26 nM | 2.03 nM |  |  |
| CNC(=O)c1c(-n2ccc(C)cc2=O)oc2cc(N(C)S(C)(=O)=O)c(-c3ccc4ncn5c6cccc(F)c6cc5c4n3)cc12 [Example 12] | 2.36 nM | 2.11 nM |  |  |
| CNC(=O)c1c(-n2cnc(C)n2)oc2cc(N(C)S(C)(=O)=O)c(-c3ccc4ncn5c6cccc(F)c6cc5c4n3)cc12 [Example 13] | 99.5 nM | 298 nM |  |  |
| CNC(=O)c1c(-c2ccc(F)cc2)oc2nc(N(C)S(C)(=O)=O)c(-c3ccc4ncn5c6cccc(F)c6cc5c4n3)cc12 [Example 14, 2-(4-fluorophenyl)-5-(11-fluoropyrido[3′,2′:4,5]pyrimido[1,6-a]indol-2-yl)-N-methyl-6-(N-methylmethylsulfonamido)furo[2,3-b]pyridine-3-carboxamide] | 3.72 nM | 1.75 nM |  |  |
| CNC(=O)c1c2cc(-c3ccc4ncn5c6cccc(F)c6cc5c4n3)c(N(C)S(C)(=O)=O)cc2nn1-c1ccc(F)cc1 [Example 15, 2-(4-fluorophenyl)-5-(11-fluoropyrido[3′,2′:4,5]pyrimido[1,6-a]indol-2-yl)-N-methyl-6-(N-methylmethylsulfonamido)-2H-indazole-3-carboxamide] | 5.27 nM | 3.04 nM |  |  |
| CNC(=O)c1c(-c2ccc(F)cc2)nn2cc(N(C)S(C)(=O)=O)c(-c3ccc4ncn5c6cccc(F)c6cc5c4n3)cc12 [Example 16, 2-(4-fluorophenyl)-5-(11-fluoropyrido[3′,2′:4,5]pyrimido[1,6-a]indol-2-yl)-N-methyl-6-(N-methylmethylsulfonamido)pyrazolo[1,5-a]pyridine-3-carboxamide] | 2.22 nM | 0.954 nM |  |  |
| CNC(=O)c1c(-c2ccc(C(F)(F)F)nc2)oc2cc(N(C)S(C)(=O)=O)c(-c3cc4c(cn3)ncn3c5cccc(F)c5cc43)cc12 [Example 17, 5-(11-fluoropyrido[3′,4′:4,5]pyrimido[1,6-a]indol-2-yl)-N-methyl-6-(N-methylmethylsulfonamido)-2-(6-(trifluoromethyl)pyridin-3-yl)benzofuran-3-carboxamide] | 1.78 nM | 1.27 nM |  |  |
| CNC(=O)c1c(-c2ccc(OC(F)F)nc2)oc2cc(N(C)S(C)(=O)=O)c(-c3cc4c(cn3)ncn3c5cccc(F)c5cc43)cc12 [Example 18] | 1.86 nM | 1.06 nM |  |  |
| CNC(=O)c1c(-c2ccc(C)nc2)oc2cc(N(C)S(C)(=O)=O)c(-c3cc4c(cn3)ncn3c5cccc(F)c5cc43)cc12 [Example 19] | 5.64 nM | 2.79 nM |  |  |
| CNC(=O)c1c(-c2ccc(F)cc2)oc2cc(N(C)S(C)(=O)=O)c(-c3ccc4ncn5c6ccc(F)cc6cc5c4n3)cc12 [Example 20, 2-(4-fluorophenyl)-5-(10-fluoropyrido[3′,2′:4,5]pyrimido[1,6-a]indol-2-yl)-N-methyl-6-(N-methylmethylsulfonamido)benzofuran-3-carboxamide] | 3.33 nM | 1.59 nM |  |  |
